How the values were obtained:
human ADRA2C receptor [1] = target: T1, human ADRA2C receptor (Homo sapiens (Human), UniProt P18825); assay: In vitro radioligand binding studies ([3H] rauwolscine competition) at the human adrenoreceptor ADRA2C; conditions: for IC50: 0.5 nM [3H] rauwolscine, homogenates of CHO-K1 cells expressing human ADRA2C, 1 h at 4° C., read-out: hARα2C IC50; for Ki: calculated from IC50 and Kd with the Cheng Prusoff equation, read-out: hARα2C Ki
Method: B-1 In Vitro Radioligand Binding Studies for Determination of the Dissociation Constants K1 at the Human Adrenoreceptor ADRA2C (Eurofins Panlabs Discovery Services, Taiwan, Ltd)
A competition assay based on [^3H] rauwolscine as radioliganden was used to determine the binding affinity of the test substances at the human ADRA2C receptor.
To configure the competition assay, the equilibrium dissociation constant Kd of the radioligand [^3H] rauwolscine was determined in a saturation experiment. To this end, homogenates of CHO-K1 cells recombinantly expressing the human ADRA2C receptor were incubated with increasing concentrations of the radiotracers for 1 h at 4° C. in binding buffer (50 mM Tris-HCl, 1 mM EDTA, pH 7.4). Unspecific binding was determined by addition of an excess of the not radioactively labelled ligand prazosin (10 μM). The radioactivity was determined in a scintiation counter.
The competition experiments were carried out in the presence of 0.5 nM [^3H] rauwolscine and increasing concentrations of the test substances to be characterized under the conditions described above.
From the IC50 value measured in the competition experiment and the […] from the saturation experiment, the equilibrium constant Ki of the inhibitor, which describes the affinity of the test substances to the receptor, was calculated using the Cheng Prusoff equation [Cheng Y, Prusoff WH. Relationship between the inhibition constant (Ki) and the concentration of inhibitor which causes 50 percent inhibition (I50) of an enzymatic reaction. […] PMID 4202581 PMID: 4202581].

human ADRA2C receptor [2] = target: T1, human ADRA2C receptor; assay: In vitro activity assay to determine the inhibition of recombinant ADRA2C (CHO-K1 cells, aequorin bioluminescence); type: cell-based; conditions: inhibition of noradrenaline-induced bioluminescence signal; some mean values from multiple determinations; read-out: ARα2C IC50
Procedure, shortened: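 IC50 is the concentration halving the agonist (noradrenaline)-evoked rise in aequorin luminescence, fitted by 4-parameter Hill function. Read in stable Gαq/aequorin CHO-K1 cells expressing recombinant human ADRA2C.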

[3] = system: anaesthetized, spontaneously breathing pigs; assay: Pig model of obstructive sleep apnea (OSA): upper airway collapsibility under negative pressure; type: in vivo, German Landrace pigs; conditions: for Percent pigs without collaps −50 cm H2O / Percent pigs without collaps −100 cm H2O / Percent pigs without collaps −150 cm H2O: 0.01 mg/kg intraduodenal at 0 min; for upper airway collapsibility / time points at which upper airway collapsibility was inhibited at all negative pressures of −50, −100 and −150 cm H2O in all pigs: 0.01 mg/kg intraduodenal, alone
From the text: B-3 Animal Model of Obstructive Sleep Apnoea in the Pig
Using negative pressure, it is possible to induce collapse and thus obstruction of the upper respiratory tract in anesthetized, spontaneously breathing pigs [Wirth et al., Sleep 36, 699-708 (2013)].
German Landrace pigs are used for the model. The pigs are anesthetized and tracheotomized. One cannula each is inserted into the rostral and the caudal part of the trachea. Using a T connector, the rostral cannula is connected on the one hand to a device generating negative pressures and on the other hand to the caudal cannula. Using a T connector, the caudal cannula is connected to the rostral cannula and to a tube which allows spontaneous breathing circumventing the upper respiratory tract. By appropriate closing and opening of the tubes it is thus possible for the pig to change from normal nasal breathing to breathing via the caudal cannula during the time when the upper respiratory tract is isolated and connected to the device for generating negative pressures. The muscle activity of the musculus genioglossus is recorded by electromyogram (EMG).
(§1) At certain points in time, the collapsibility of the upper respiratory tract is tested by having the pig breathe via the caudal cannula and applying negative pressures of −50, −100 and −150 cm water head (cmH2O) to the upper respiratory tract. This causes the upper respiratory tract to collapse, which manifests itself in an interruption of the airflow and a pressure drop in the tube system. This test is conducted prior to the administration of the test substance and at certain intervals after the administration of the test substance. An appropriately effective test substance can prevent this collapse of the respiratory tract in the inspiratory phase.
Administration of the test substance can be intranasal, intravenous, subcutaneous, intraperitoneal, intraduodenal or intragastral.
The therapeutic potential of the combination of an α2-Adrenoceptor subtype C (alpha-2C) antagonists with a TASK⅓ channel blocker according to the present invention in sleep apnea can be assessed preclinically in a pig model of obstructive sleep apnea (OSA).
Using negative pressure, it is possible to induce collapse and thus obstruction of the upper respiratory tract in anaesthetized, spontaneously breathing pigs (Wirth K. J. et al., Sleep 36(5) (2013) pp. 699-708).
German Landrace pigs are used for the model. The pigs are anaesthetized and tracheotomized. Two tracheal cannulas are inserted into the trachea, one into the rostral part and the other into the caudal part of the trachea. Using a connection piece, the rostral cannula is connected to a tube to the negative pressure device and to the distal tracheal cannula. The distal tracheal cannula is additionally connected to a tube with an open end to atmosphere via a connection piece that served for free tracheal breathing, circumventing the upper airway. By appropriate opening and clamping of those tubes breathing can be switched from nasal breathing to breathing through the caudal tracheal cannula, circumventing the upper airway, and the (isolated) upper airway can be connected to the negative pressure device, causing airflow in the inspiratory direction.
as §1, with “(cm H2O)” for “(cmH2O)”

T1 sequence (P18825 whole entry): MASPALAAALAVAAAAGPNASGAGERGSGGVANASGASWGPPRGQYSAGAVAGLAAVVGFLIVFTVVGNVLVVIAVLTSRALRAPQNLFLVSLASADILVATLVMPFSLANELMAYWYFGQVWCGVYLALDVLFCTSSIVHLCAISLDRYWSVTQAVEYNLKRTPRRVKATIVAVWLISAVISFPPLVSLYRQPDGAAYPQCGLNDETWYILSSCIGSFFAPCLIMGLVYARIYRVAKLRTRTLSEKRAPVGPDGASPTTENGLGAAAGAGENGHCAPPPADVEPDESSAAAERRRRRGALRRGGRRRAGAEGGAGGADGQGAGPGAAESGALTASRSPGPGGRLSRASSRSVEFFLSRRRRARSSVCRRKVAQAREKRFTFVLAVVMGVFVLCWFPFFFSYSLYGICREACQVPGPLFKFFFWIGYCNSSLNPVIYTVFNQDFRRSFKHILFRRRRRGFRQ

Compound: COCC1CCCN(C2CCN(c3ncc(C(=O)NCc4ncc(F)cc4F)s3)CC2)C1 (single isomer, unassigned) [Example 100, ent-N-[(3,5-Difluoropyridin-2-yl)methyl]-2-[3-(methoxymethyl)[1,4′-bipiperidin]-1′-yl]-1,3-thiazole-5-carboxamide]
- IC50 (human ADRA2C receptor [1]): 5 nM
- Ki (human ADRA2C receptor [1]): 2 nM
- IC50 (human ADRA2C receptor [2]): 2.9 nM

Compound: C[C@@H]1CCCN(C2CCN(c3ncc(C(=O)NCc4ncc(F)cc4F)s3)CC2)C1 [Example 1, N-[(3,5-Difluoropyridin-2-yl)methyl]-2-[(3R)-3-methyl[1,4′-bipiperidin]-1′-yl]-1,3-thiazole-5-carboxamide]
- IC50 (human ADRA2C receptor [1]): 54 nM
- Ki (human ADRA2C receptor [1]): 24 nM
- IC50 (human ADRA2C receptor [2]): 121 nM

Compound: C[C@@H]1CCCN(C2CCN(c3ncc(C(=O)NCc4ncc(F)cc4F)s3)CC2)C1 [N-[(3,5-difluoropyridin-2-yl)methyl]-2-[(3R)-3-methyl[1,4′-bipiperidin]-1′-yl]-1,3-thiazole-5-carboxamide]
- Percent pigs without collaps −50 cm H2O ([3]; time 0 min): 0%
- Percent pigs without collaps −100 cm H2O ([3]; time 0 min): 0%
- Percent pigs without collaps −150 cm H2O ([3]; time 0 min): 0%
- Percent pigs without collaps −50 cm H2O ([3]; time 30 min): 0%
- Percent pigs without collaps −100 cm H2O ([3]; time 30 min): 0%
- Percent pigs without collaps −150 cm H2O ([3]; time 30 min): 0%
- Percent pigs without collaps −50 cm H2O ([3]; time 60 min): 0%
- Percent pigs without collaps −100 cm H2O ([3]; time 60 min): 0%
- Percent pigs without collaps −150 cm H2O ([3]; time 60 min): 0%
- Percent pigs without collaps −50 cm H2O ([3]; time 90 min): 33%
- Percent pigs without collaps −100 cm H2O ([3]; time 90 min): 33%
- Percent pigs without collaps −150 cm H2O ([3]; time 90 min): 33%
- Percent pigs without collaps −50 cm H2O ([3]; time 120 min): 100%
- Percent pigs without collaps −100 cm H2O ([3]; time 120 min): 100%
- Percent pigs without collaps −150 cm H2O ([3]; time 120 min): 67%
- Percent pigs without collaps −50 cm H2O ([3]; time 150 min): 100%
- Percent pigs without collaps −100 cm H2O ([3]; time 150 min): 100%
- Percent pigs without collaps −150 cm H2O ([3]; time 150 min): 100%
- Percent pigs without collaps −50 cm H2O ([3]; time 180 min): 100%
- Percent pigs without collaps −100 cm H2O ([3]; time 180 min): 100%
- Percent pigs without collaps −150 cm H2O ([3]; time 180 min): 100%
- Percent pigs without collaps −50 cm H2O ([3]; time 210 min): 67%
- Percent pigs without collaps −100 cm H2O ([3]; time 210 min): 33%
- Percent pigs without collaps −150 cm H2O ([3]; time 210 min): 0%
- Percent pigs without collaps −50 cm H2O ([3]; time 230 min): 0%
- Percent pigs without collaps −100 cm H2O ([3]; time 230 min): 0%
- Percent pigs without collaps −150 cm H2O ([3]; time 230 min): 0%
- upper airway collapsibility ([3]; 230 min after administration, all pigs): induced at all negative pressures
- time points at which upper airway collapsibility was inhibited at all negative pressures of −50, −100 and −150 cm H2O in all pigs ([3]; first set): only at time point 150 and 180 min
- time points at which upper airway collapsibility was inhibited at all negative pressures of −50, −100 and −150 cm H2O in all pigs ([3]; second set): at no time point
- Percent pigs without collaps −50 cm H2O ([3]; second set, time 0 min): 0%
- Percent pigs without collaps −100 cm H2O ([3]; second set, time 0 min): 0%
- Percent pigs without collaps −150 cm H2O ([3]; second set, time 0 min): 0%
- Percent pigs without collaps −50 cm H2O ([3]; second set, time 30 min): 0%
- Percent pigs without collaps −100 cm H2O ([3]; second set, time 30 min): 0%
- Percent pigs without collaps −150 cm H2O ([3]; second set, time 30 min): 0%
- Percent pigs without collaps −50 cm H2O ([3]; second set, time 60 min): 50%
- Percent pigs without collaps −100 cm H2O ([3]; second set, time 60 min): 0%
- Percent pigs without collaps −150 cm H2O ([3]; second set, time 60 min): 0%
- Percent pigs without collaps −50 cm H2O ([3]; second set, time 90 min): 100%
- Percent pigs without collaps −100 cm H2O ([3]; second set, time 90 min): 50%
- Percent pigs without collaps −150 cm H2O ([3]; second set, time 90 min): 50%
- Percent pigs without collaps −50 cm H2O ([3]; second set, time 120 min): 100%
- Percent pigs without collaps −100 cm H2O ([3]; second set, time 120 min): 100%
- Percent pigs without collaps −150 cm H2O ([3]; second set, time 120 min): 0%
- Percent pigs without collaps −50 cm H2O ([3]; second set, time 150 min): 50%
- Percent pigs without collaps −100 cm H2O ([3]; second set, time 150 min): 0%
- Percent pigs without collaps −150 cm H2O ([3]; second set, time 150 min): 0%
- Percent pigs without collaps −50 cm H2O ([3]; second set, time 180 min): 0%
- Percent pigs without collaps −100 cm H2O ([3]; second set, time 180 min): 0%
- Percent pigs without collaps −150 cm H2O ([3]; second set, time 180 min): 0%
- upper airway collapsibility ([3]; second set, 90 min after administration): only inhibited at negative pressures of −50 cm head
- upper airway collapsibility ([3]; second set, 120 min after administration): only inhibited at negative pressures of −50 and −100 cm head
- upper airway collapsibility ([3]; second set, 180 min after administration, all pigs): induced at all negative pressures
